Like-named read-outs stand apart in the source and are kept apart here.
Columns and labels:
[1] = Pharmacokinetic study in healthy adults of single vs. multiple oral doses of colchicine tablets (Example 1); settings: for metabolite plasma concentration: after oral colchicine 0.6 mg single and multiple doses, LOQ 0.2 ng/mL, 13 subjects
Protocol: Subjects received a light breakfast served 60 minutes following dose administration in the morning and the evening dose was administered 90 minutes after an evening meal on Days 15 through 24 only. […] Study periods were separated by a 14-day washout. Following the single dose and the last dose of the multiple dose regimen (beginning on the mornings of Day 1 and Day 25, respectively), blood samples were collected (6 mL each) from each subject within 1 hour prior to dosing and after dose administration at study hours 0.5, 1, 1.5, 2, 3, 4, 6, 8, 10, 12, and 24 (while confined) and 36, 48, 72, and 96 (on an outpatient basis).
In tables, the parameter CL/F denotes the apparent total body clearance after administration, calculated as Total Dose/Total AUC0-tau; and Vd/F denotes the apparent total volume of distribution after administration, calculated as Total Dose/(Total AUC∞×Kel).
These include plasma concentration (C), as well as Cmax, Cn, C24, Tmax, and AUC. “Cmax” is the measured plasma concentration of the active agent at the point of maximum, or peak, concentration. “Cmin” is the measured plasma concentration of the active agent at the point of minimum concentration. “Cn” is the measured plasma concentration of the active agent at about n hours after administration. […] The term “Tmax” refers to the time from drug administration until Cmax is reached. “AUC” is the area under the curve of a graph of the measured plasma concentration of an active agent vs. time, measured from one time point to another time point. […] Time t can be the last time point with measurable plasma concentration for an individual formulation. The AUC0-∞, AUC∞ or AUC0-inf is the calculated area under the curve of plasma concentration versus time from time 0 to time infinity.

[2] = colchicine given concomitantly with the named drug; cited from earlier work
[3] = colchicine in plasma, N=23
[4] = colchicine in plasma, single 0.6 mg dose alone (Day 1) or with cyclosporine 100 mg (Day 15), N=23
Protocol: (§1) This study was an open-label, non-randomized, single-center, one-sequence, two-period drug interaction study conducted in healthy male and female volunteers. Twenty-four (24) non-smoking, non-obese adult volunteers were enrolled. All subjects were dosed and studied as a single cohort, with each subject receiving the same treatment in a non-randomized fashion.
(§2) Pharmacokinetic parameters referred to herein describe the in vivo characteristics of drug (or a metabolite or a surrogate marker for the drug) over time. These include plasma concentration (C), as well as Cmax, Cn, C24, Tmax, and AUC. “Cmax” is the measured plasma concentration of the active agent at the point of maximum, or peak, concentration. “Cmin” is the measured plasma concentration of the active agent at the point of minimum concentration. “Cn” is the measured plasma concentration of the active agent at about n hours after administration. […] The term “Tmax” refers to the time from drug administration until Cmax is reached. “AUC” is the area under the curve of a graph of the measured plasma concentration of an active agent vs. time, measured from one time point to another time point. […] Time t can be the last time point with measurable plasma concentration for an individual formulation. The AUC0-∞, AUC∞ or AUC0-inf is the calculated area under the curve of plasma concentration versus time from time 0 to time infinity.

[5] = colchicine in plasma; single 0.6 mg dose alone (Day 1) or with steady-state diltiazem (Day 21); N=20; arithmetic mean
Protocol: as §1, §2

[6] = not given; remark: listed apart in the source
[7] = for AUC0-t, geometric mean / AUC∞, geometric mean / Cmax, geometric mean: single 0.6 mg dose alone or with steady-state ritonavir 100 mg b.i.d., ln-transformed data
Protocol: An open-label, non-randomized, single-center, one-sequence, two-period drug interaction study was conducted in healthy male and female volunteers; there will be a 14-day washout between the two periods. Twenty-four (24) non-smoking, non-obese adult volunteers were enrolled. All subjects were dosed and studied as a single cohort, with each subject receiving the same treatment in a non-randomized fashion.
On the evening of Day 18, study participants remained at the clinic for their final study confinement period.
as §2

[8] = Clinical drug-drug interaction study of colchicine and verapamil (Example 8); settings: for AUC0-inf: both, human, in vivo, 0.6 mg
Protocol: as §1, §2

FMF patients = settings: reported; cited from earlier work
clinical [9] = settings: both, human, plasma, oral, 0.6 mg, geometric mean, colchicine in plasma, single 0.6 mg dose alone or with steady-state ketoconazole 200 mg b.i.d., ln-transformed data
Description: This study was an open-label, non-randomized, single-center, one-sequence, two-period drug interaction study conducted in healthy male and female volunteers; there will be a 14-day washout between the two periods. Twenty-four (24) non-smoking, non-obese adult volunteers were enrolled.
as §2

clinical [10] = settings: both, human, plasma, 0.6 mg
Protocol: as §1, §2

clinical [11] = settings: both, human, plasma, 0.6 mg, colchicine in plasma, single 0.6 mg dose alone (Day 1) or with steady-state diltiazem (Day 21), N=20, arithmetic mean
Protocol: as §1, §2

clinical [12] = settings: both, human, plasma, oral, 0.6 mg, colchicine in plasma
Protocol: This study was an open-label, non-randomized, single-center, one-sequence, two-period drug interaction study conducted in healthy male and female volunteers; there was a 14-day washout between the two periods. Twenty-four (24) non-smoking, non-obese adult volunteers were enrolled. All subjects were dosed and studied as a single cohort, with each subject receiving the same treatment in a non-randomized fashion.
Azithromycin was administered for 5 consecutive days (2×250 mg once daily [Day 15 only] and then 1×250 mg once daily Days 16-19) beginning on the morning of Day 15, with the last 250 mg azithromycin dose administered on the morning on Day 19.
Azithromycin plasma concentrations were not measured.
as §2

[13] = colchicine in plasma, single 0.6 mg dose alone (Day 1) or with steady-state azithromycin (Day 19), N=21, arithmetic mean
[14] = colchicine in plasma, single 0.6 mg dose alone or with steady-state azithromycin
[15] = colchicine, single 0.6 mg dose alone or with steady-state azithromycin, N=21, arithmetic mean
[16] = single 0.6 mg dose alone (Day 1) or with steady-state clarithromycin (Day 29), arithmetic mean
[17] = colchicine in plasma, single 0.6 mg dose alone or with steady-state ketoconazole 200 mg b.i.d., ln-transformed data
[18] = colchicine in plasma, single 0.6 mg dose alone (Day 1) or with steady-state ritonavir (Day 19), N=18, arithmetic mean
[19] = colchicine in plasma, listed as Colchicine + Ritonovir
[20] = colchicine in plasma, single 0.6 mg dose alone (Day 1) or with steady-state verapamil (Day 19), N=24, arithmetic mean
[21] = colchicine in plasma, single 0.6 mg dose alone or with steady-state verapamil HCl ER 240 mg once daily
[22] = multiple (b.i.d. x 10 days) oral doses colchicine 0.6 mg, after last dose Day 25, healthy adults N=13
[23] = single oral dose colchicine 0.6 mg, fasted, healthy adults N=13
[24] = co-administration with ritonavir 100 mg b.i.d. x 5 days
[25] = following ritonavir 100 mg b.i.d. x 5 days vs colchicine alone
[26] = single oral 0.6 mg colchicine following ketoconazole 200 mg b.i.d. x 5 days vs alone
[27] = co-administration with azithromycin
[28] = following azithromycin 500 mg then 250 mg x 4 days vs colchicine alone

For COc1cc2c(c(OC)c1O)-c1ccc(OC)c(=O)cc1[C@@H](NC(C)=O)CC2 [2-DMC, 2-O-demethylcolchicine], the metabolite plasma concentration [1] was < 0.2 ng/mL.
In the case of COc1c(O)cc2c(c1OC)-c1ccc(OC)c(=O)cc1[C@@H](NC(C)=O)CC2 [3-DMC, 3-O-demethylcolchciine], the metabolite plasma concentration [1] is reported as “only one sample from 1 subject (of 13 subjects) had a detectable”.
In the case of CC[C@H]1OC(=O)[C@H](C)[C@@H](O[C@H]2C[C@@](C)(OC)[C@@H](O)[C@H](C)O2)[C@H](C)[C@@H](O[C@@H]2O[C@H](C)C[C@H](N(C)C)[C@H]2O)[C@](C)(OC)C[C@@H](C)C(=O)[C@H](C)[C@@H](O)[C@]1(C)O [Clarithromycin], the “Noted or Anticipated Outcome: toxicity reported with concomitant colchicine” value [2] is given as “fatal colchicine toxicity”.
In the case of COc1cc2c(c(OC)c1OC)-c1ccc(OC)c(=O)cc1[C@@H](NC(C)=O)CC2 [Colchicine + Azithromycin], the AUC0-t [13] is reported as 17.16 ng·h/mL, the Cmax [13] is reported as 3.05 ng/mL and the “AUC0-t, geometric mean” value [14] is reported as 16.09052 ng·h/mL. For the same compound, the “AUC∞, geometric mean” value [14] was 18.31283 ng·h/mL, the “Cmax, geometric mean” value [14] was 2.85622 ng/mL and the CL/F [15] was 35.01 L/h. For the same compound, the t1/2 [15] was 6.71 h.
COc1cc2c(c(OC)c1OC)-c1ccc(OC)c(=O)cc1[C@@H](NC(C)=O)CC2 [Colchicine + Clarithromycin] showed an AUC0-inf [3, 16] of 52.62 ng·h/mL, an AUC0-t [3, 16] of 41.95 ng·h/mL and a Cmax [3, 16] of 8.44 ng/mL. For the same compound, the “Tmax (hr)*” value ([3]; single 0.6 mg dose alone or with steady-state clarithromycin, range printed beside) was 1.00 h.
In the case of COc1cc2c(c(OC)c1OC)-c1ccc(OC)c(=O)cc1[C@@H](NC(C)=O)CC2 [Colchicine + Cyclosporine], the “Tmax (hr)*” value [4] is reported as 1.13 h, the AUC0-inf ([4]; arithmetic mean) is reported as 47.31 ng·h/mL and the AUC0-t ([4]; arithmetic mean) is reported as 39.83 ng·h/mL. The Cmax ([4]; arithmetic mean) was 8.82 ng/mL.
With COc1cc2c(c(OC)c1OC)-c1ccc(OC)c(=O)cc1[C@@H](NC(C)=O)CC2 [Colchicine + Diltiazem] the AUC0-t [5] was 17.73 ng·h/mL, the “AUC0-∞” value [5] was 22.49 ng·h/mL and the Cmax [5] was 2.80 ng/mL.
In the case of COc1cc2c(c(OC)c1OC)-c1ccc(OC)c(=O)cc1[C@@H](NC(C)=O)CC2 [Colchicine + Ketoconazole], the “AUC0-t, geometric mean” value [6, 17] is reported as 33.2238 ng·h/mL, the “AUC∞, geometric mean” value [6, 17] is reported as 42.143 ng·h/mL and the “Cmax, geometric mean” value [6, 17] is reported as 5.0785 ng/mL. The “Tmax (hr)*” value ([6]; colchicine in plasma, single 0.6 mg dose alone or with steady-state ketoconazole, N=23, *Median (Range) for Tmax) was 1.02 h.
For COc1cc2c(c(OC)c1OC)-c1ccc(OC)c(=O)cc1[C@@H](NC(C)=O)CC2 [Colchicine + Ritonavir], the AUC0-t [7, 18] was 29.05 ng·h/mL, the “AUC0-∞” value [7, 18] was 35.28 ng·h/mL and the Cmax [7, 18] was 4.99 ng/mL. For the same compound, the “AUC0-t, geometric mean” value [7, 19] was 27.79308 ng·h/mL, the “AUC∞, geometric mean” value [7, 19] was 33.77136 ng·h/mL and the “Cmax, geometric mean” value [7, 19] was 4.83539 ng/mL.
For COc1cc2c(c(OC)c1OC)-c1ccc(OC)c(=O)cc1[C@@H](NC(C)=O)CC2 [Colchicine + Verapamil], the AUC0-t [8, 20] was 24.64 ng·h/mL, the “AUC0-∞” value [8, 20] was 30.59 ng·h/mL and the Cmax [8, 20] was 3.85 ng/mL. The “AUC0-t, geometric mean” value [8, 21] was 23.88921 ng·h/mL, the “AUC∞, geometric mean” value [8, 21] was 29.55675 ng·h/mL and the “Cmax, geometric mean” value [8, 21] was 3.63968 ng/mL. For the same compound, the Tmax ([8]; colchicine in plasma, single 0.6 mg dose alone or with steady-state verapamil, N=24, head says median for Tmax) was 1.15 h.
In the case of COc1cc2c(c(OC)c1OC)-c1ccc(OC)c(=O)cc1[C@@H](NC(C)=O)CC2 [Colchicine, (−)-N-[(7S,12aS)-1,2,3,10-tetramethoxy-9-oxo-5,6,7,9-tetrahydrobenzo[a]heptalen-7-yl]-acetamide], the “FMF patients who do not show a beneficial response to colchicine administration” value (FMF patients) is given as 5-10%, the “attainment of steady state (trough plasma concentrations)” value ([1]; 0.6 mg b.i.d.) is given as “by approximately the eighth day of dosing for most subjects” and the elimination half-life ([1]; calculated following a single oral dose, stated not an accurate estimate) is given as “approximately 5 hours”. The “Cave, MEAN” value [1, 22] was 1.69722 ng/mL, the “Cave, MEDIAN” value [1, 22] was 1.70192 ng/mL and the “Cmin, MEDIAN” value [1, 22] was 0.9035 ng/mL. The “Ke1, MEAN” value [1, 22] was 0.0267 h⁻¹, the “Ke1, MEDIAN” value [1, 22] was 0.0261 h⁻¹ and the “quantifiability of plasma concentrations after a single dose” value ([1]; single 0.6 mg oral dose, healthy adults) was “no longer quantifiable 24 hours post-dose in all but 1 subject”. For the same compound, the secondary colchicine peak ([1]; single dose or multiple dosing, individual subject data) was “no subject experienced a secondary colchicine peak”, the “Ke1, MEAN” value [1, 23] was 0.1829 h⁻¹ and the “Ke1, MEDIAN” value [1, 23] was 0.1992 h⁻¹. The “Cmin prior to the morning dose higher than Cmin prior to the evening dose” value ([1]; steady state, Day 23 and Day 24) was “approximately 12%”, the Cmax [5] was 2.17 ng/mL and the Cmax (clinical [9]) was 2.6 ng/mL. For the same compound, the AUC0-inf (clinical [10]) was 15 ng·h/mL, the AUC0-t (clinical [10]) was 12.6 ng·h/mL and the Cmax (clinical [10]) was 2.72 ng/mL. For the same compound, the Tmax (clinical [10]) was 1.15 h, the “decrease in total apparent oral clearance” value (“decrease” for short) [7, 24] was 70% and the “effect on Tmax” value [7, 24] was “not affected”. For the same compound, the “AUC0-∞” value [7, 18] was 10.41 ng·h/mL, the “AUC0-t, geometric mean” value ([7]; colchicine in plasma) was 7.64271 ng·h/mL and the “AUC∞, geometric mean” value ([7]; colchicine in plasma) was 9.55174 ng·h/mL. For the same compound, the “Cmax, geometric mean” value ([7]; colchicine in plasma) was 1.79837 ng/mL, the “increase in exposure to a single 0.6-mg colchicine” value [7, 25] was “approximately 245%” and the “increase in mean peak colchicine concentration” value [7, 25] was “approximately 170%”. The AUC0-t (clinical [11]) was 10 ng·h/mL, the Cmax (clinical [12]; single 0.6 mg dose alone (Day 1) or with steady-state azithromycin (Day 19), N=21, arithmetic mean) was 2.74 ng/mL and the Cmax (clinical [12]; geometric mean, single 0.6 mg dose alone or with steady-state azithromycin) was 2.54 ng/mL. The AUC0-inf [3, 16] was 15.53 ng·h/mL, the AUC0-t [3, 16] was 12.37 ng·h/mL and the AUC0-inf ([8]; AUC0-∞, colchicine in plasma, single 0.6 mg dose alone (Day 1) or with steady-state verapamil (Day 19), N=24, arithmetic mean) was 15.4 ng·h/mL. The AUC0-inf ([8]; AUC∞, geometric mean, colchicine in plasma, single 0.6 mg dose alone or with steady-state verapamil HCl ER 240 mg once daily) was 14.4 ng·h/mL, the Cmax [8, 20] was 2.97 ng/mL and the “AUC0-t, geometric mean” value [8, 21] was 12.2564 ng·h/mL. The CL/F ([8]; colchicine, single 0.6 mg dose alone or with steady-state verapamil, N=24, arithmetic mean) was 43.93 L/h, the “decrease” value ([6]; co-administration with ketoconazole 200 mg b.i.d. x 5 days) was 70% and the “AUC∞, geometric mean” value [6, 17] was 13.18592 ng·h/mL. For the same compound, the “increase in AUC0-t of colchicine” value [6, 26] was 190%, the “increase in Cmax of colchicine” value [6, 26] was 90% and the “decrease” value [27] was “approximately 30%”. The “effect on Tmax” value [27] was “not affected”, the AUC0-t [13] was 11.98 ng·h/mL and the “AUC0-∞” value [13] was 14.13 ng·h/mL. For the same compound, the “AUC∞, geometric mean” value [14] was 12.9318 ng·h/mL, the CL/F [15] was 50.24 L/h and the “increase in exposure to colchicine” value (concomitant administration of azithromycin (description)) was “approximately 46%”. The “increase in exposure to colchicine, AUC0-t” value [28] was “approximately 46%”, the “increase in exposure to colchicine, AUC0-∞” value [28] was “approximately 40%” and the “increase in mean peak colchicine concentration” value [28] was “approximately 12%”.

From US8093297B2 (Mutual Pharmaceutical Company, Inc., priority 2009, dated 2012)
